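Exposure lasted 48 hours, with cells grown in 96-well plates and compounds tested at five concentrations. Here, GI50 denotes the concentration required for 50% inhibition of growth.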 The source made the active and inactive calls. Rule as the data show it: active = GI50 up to about 1.1 µM and inactive = higher.
What was measured:
Experiment in all cases: growth of human tumour cells (NCI), 48 h
[1] = tested on: MDA-N
[2] = tested on: NCI-H460
[3] = tested on: HOP-62
[4] = tested on: KM12
[5] = tested on: SK-OV-3
[6] = tested on: UO-31
[7] = tested on: SF-268
[8] = tested on: TK-10
[9] = tested on: UACC-257
[10] = tested on: RXF 393
[11] = tested on: HCC 2998
[12] = tested on: SNB-75
[13] = tested on: U-251
[14] = tested on: HT-29
[15] = tested on: OVCAR-3
[16] = tested on: 786-0
[17] = tested on: PC-3
[18] = tested on: IGROV-1
[19] = tested on: NCI-H522
[20] = tested on: MCF7
[21] = tested on: CAKI-1
[22] = tested on: NCI-H226
[23] = tested on: SNB-19
[24] = tested on: MDA-MB-435
[25] = tested on: K562
[26] = tested on: Malme-3M
[27] = tested on: SK-MEL-5
[28] = tested on: NCI-H23
[29] = tested on: COLO 205
[30] = tested on: BT-549
[31] = tested on: MDA-MB-231
[32] = tested on: SF-295
[33] = tested on: OVCAR-5
[34] = tested on: NCI/ADR-RES
[35] = tested on: LOX IMVI
[36] = tested on: RPMI-8226
[37] = tested on: UACC-62
[38] = tested on: HOP-92
[39] = tested on: CCRF-CEM
[40] = tested on: ACHN
[41] = tested on: SN12C
[42] = tested on: OVCAR-4
[43] = tested on: SW-620
[44] = tested on: HCT-116
[45] = tested on: OVCAR-8
[46] = tested on: SF-539
[47] = tested on: T47D
[48] = tested on: HL-60
[49] = tested on: M14
[50] = tested on: HCT-15
[51] = tested on: SK-MEL-28
[52] = tested on: EKVX
[53] = tested on: DU-145
[54] = tested on: MOLT-4
[55] = tested on: A549
[56] = tested on: SK-MEL-2
[57] = tested on: Hs-578T
[58] = tested on: A498

## Cc1cc(C)nc(NS(=O)(=O)c2ccc(NN=c3c4ccccc4n(C)c4ccccc34)cc2)n1
[1]
  GI50: 22.2 µM (inactive)
[2]
  GI50: 29.6 µM (inactive)
[3]
  GI50: 60.5 µM (inactive)
[4]
  GI50: 52.7 µM (inactive)
[5]
  GI50: 27.2 µM (inactive)
[6]
  GI50: 16.6 µM (inactive)
[7]
  GI50: 25.6 µM (inactive)
[8]
  GI50: 28.6 µM (inactive)
[9]
  GI50: 39.3 µM (inactive)
[10]
  GI50: 7.62 µM (inactive)
[11]
  GI50: 28.3 µM (inactive)
[12]
  GI50: 12.7 µM (inactive)
[13]
  GI50: 34.5 µM (inactive)
[14]
  GI50: 33.3 µM (inactive)
[15]
  GI50: 30.2 µM (inactive)
[16]
  GI50: 30.2 µM (inactive)
[17]
  GI50: 22 µM (inactive)
[18]
  GI50: 45.8 µM (inactive)
[19]
  GI50: 13.8 µM (inactive)
[20]
  GI50: 17.3 µM (inactive)
[21]
  GI50: 21.5 µM (inactive)
[22]
  GI50: 40.2 µM (inactive)
[23]
  GI50: 42.3 µM (inactive)
[24]
  GI50: 23.8 µM (inactive)
[25]
  GI50: 16.7 µM (inactive)
[26]
  GI50: 35.6 µM (inactive)
[27]
  GI50: 17.2 µM (inactive)
[28]
  GI50: 25.6 µM (inactive)
[29]
  GI50: 29.7 µM (inactive)
[30]
  GI50: 8.95 µM (inactive)
[31]
  GI50: 21.3 µM (inactive)
[32]
  GI50: 44.7 µM (inactive)
[33]
  GI50: 26.9 µM (inactive)
[34]
  GI50: 38.2 µM (inactive)
[35]
  GI50: 23.7 µM (inactive)
[36]
  GI50: 27.5 µM (inactive)
[37]
  GI50: 20.8 µM (inactive)
[38]
  GI50: 15.6 µM (inactive)
[39]
  GI50: 15.7 µM (inactive)
[40]
  GI50: 21.6 µM (inactive)
[41]
  GI50: 42.8 µM (inactive)
[42]
  GI50: 23.6 µM (inactive)
[43]
  GI50: 26.1 µM (inactive)
[44]
  GI50: 25.7 µM (inactive)
[45]
  GI50: 30.1 µM (inactive)
[46]
  GI50: 44.4 µM (inactive)
[47]
  GI50: 13.9 µM (inactive)
[48]
  GI50: 28.9 µM (inactive)
[49]
  GI50: 35.5 µM (inactive)
[50]
  GI50: 32.7 µM
[51]
  GI50: 37 µM (inactive)
[52]
  GI50: 26.4 µM (inactive)
[53]
  GI50: 37 µM (inactive)
[54]
  GI50: 15.5 µM (inactive)
[55]
  GI50: 35.4 µM (inactive)
[56]
  GI50: 15.1 µM (inactive)
[57]
  GI50: 32.4 µM (inactive)

## CNc1nc(N(C)C)nc(N(C)C)n1
[1]
  GI50: 855 µM (inactive)
[17]
  GI50: 1580 µM (inactive)
[20]
  GI50: 771 µM (inactive)
[22]
  GI50: 1120 µM (inactive)
[24]
  GI50: 1110 µM (inactive)
[30]
  GI50: 1320 µM (inactive)
[31]
  GI50: 955 µM (inactive)
[34]
  GI50: 1140 µM (inactive)
[47]
  GI50: 578 µM (inactive)
[49]
  GI50: 1210 µM (inactive)
[53]
  GI50: 2790 µM (inactive)
[57]
  GI50: 2100 µM (inactive)

## COc1ccc(C(NS(=O)(=O)c2ccc(C)cc2)c2c(C(CBr)OC)c3ccccc3n2S(=O)(=O)c2ccccc2)cc1OC (stereo unspecified)
[1]
  GI50: > 100 µM (inactive)
[2]
  GI50: > 100 µM (inactive)
[3]
  GI50: > 100 µM (inactive)
[58]
  GI50: > 100 µM (inactive)
[4]
  GI50: > 100 µM (inactive)
[5]
  GI50: > 100 µM (inactive)
[6]
  GI50: > 100 µM (inactive)
[7]
  GI50: > 100 µM (inactive)
[8]
  GI50: > 100 µM (inactive)
[9]
  GI50: > 100 µM (inactive)
[10]
  GI50: > 100 µM (inactive)
[11]
  GI50: > 100 µM (inactive)
[12]
  GI50: 34.7 µM (inactive)
[13]
  GI50: > 100 µM (inactive)
[14]
  GI50: > 100 µM (inactive)
[15]
  GI50: > 100 µM (inactive)
[16]
  GI50: > 100 µM (inactive)
[17]
  GI50: > 100 µM (inactive)
[18]
  GI50: > 100 µM (inactive)
[19]
  GI50: > 100 µM (inactive)
[20]
  GI50: > 100 µM (inactive)
[21]
  GI50: > 100 µM (inactive)
[22]
  GI50: > 100 µM (inactive)
[23]
  GI50: > 100 µM (inactive)
[24]
  GI50: > 100 µM (inactive)
[25]
  GI50: > 100 µM (inactive)
[26]
  GI50: > 100 µM (inactive)
[27]
  GI50: > 100 µM (inactive)
[28]
  GI50: > 100 µM (inactive)
[29]
  GI50: > 100 µM (inactive)
[30]
  GI50: > 100 µM (inactive)
[31]
  GI50: 52.8 µM (inactive)
[32]
  GI50: > 100 µM (inactive)
[33]
  GI50: > 100 µM (inactive)
[34]
  GI50: > 100 µM (inactive)
[35]
  GI50: > 100 µM (inactive)
[37]
  GI50: > 100 µM (inactive)
[38]
  GI50: 85.5 µM (inactive)
[39]
  GI50: 89.7 µM (inactive)
[40]
  GI50: > 100 µM (inactive)
[41]
  GI50: > 100 µM (inactive)
[42]
  GI50: > 100 µM (inactive)
[43]
  GI50: > 100 µM (inactive)
[44]
  GI50: > 100 µM (inactive)
[45]
  GI50: > 100 µM (inactive)
[46]
  GI50: > 100 µM (inactive)
[47]
  GI50: > 100 µM (inactive)
[48]
  GI50: > 100 µM (inactive)
[49]
  GI50: > 100 µM (inactive)
[50]
  GI50: > 100 µM
[51]
  GI50: > 100 µM (inactive)
[52]
  GI50: > 100 µM (inactive)
[53]
  GI50: > 100 µM (inactive)
[54]
  GI50: > 100 µM (inactive)
[55]
  GI50: > 100 µM (inactive)
[56]
  GI50: > 100 µM (inactive)
[57]
  GI50: > 100 µM (inactive)
